Experiments:
[1] = test system: TRAMP C2 prostate cancer cell lines; test: XTT growth inhibition assay, TRAMP C2; type: cell-based, human; details: compared with corresponding free drugs
Experimental: The cytotoxicity of the peptide-drug conjugates was determined by measuring the mitochondrial enzyme activity, using a commercial XTT assay kit. All samples contained DMSO at final concentration <0.05%. Cells were cultured in micro wells at 2-4×10^4 cells/ml and incubated for 24 h or 72 h. After the first incubation period the cultures were washed and then given fresh medium containing different concentrations of the tested substances. At the end of the second incubation, XTT reagent was added and the cells were re-incubated for additional 2-4 h. During that time the absorbencies in the wells were measured with a TECAN Infinite M200 plate reader at both 480 and 680 nm. […]
In order to compare the cytotoxic effects of the conjugates relative to the free drugs, the in vitro cytotoxic effect of the drug bioconjugates 1a-e was determined on SSTR2 overexpressed HCT 116 human colorectal carcinoma, H1299 human non-small cell lung carcinoma and TRAMP C2 human prostate cancer cell lines. […]
(§1) FIGS. 13A-13D present the results of the XTT growth inhibition assay conducted for conjugates 1a-e. […] After the treatment, growth inhibition was measured using the XTT assay: The culture medium was replaced by a new one, and then the XTT reagent was added. The wells were incubated for 2-4 hrs. after which the optical density (OD) was measured at 480 and 680 nm. […]

[2] = test system: HCT 116, H1299, TRAMP C2 and HEK cell lines; test: XTT growth inhibition assay, statements over all tested cell lines; type: cell-based, human; details: 1-10 μM, 24 and 72 h
Experimental: (§2) The cytotoxicity of the peptide-drug conjugates was determined by measuring the mitochondrial enzyme activity, using a commercial XTT assay kit. All samples contained DMSO at final concentration <0.05%. Cells were cultured in micro wells at 2-4×10^4 cells/ml and incubated for 24 h or 72 h. After the first incubation period the cultures were washed and then given fresh medium containing different concentrations of the tested substances. At the end of the second incubation, XTT reagent was added and the cells were re-incubated for additional 2-4 h. During that time the absorbencies in the wells were measured with a TECAN Infinite M200 plate reader at both 480 and 680 nm. The difference between these measurements was used for calculating the % Growth Inhibition (GI) in test wells compared to two controls: cells that were exposed to the medium and solvent, and those that were exposed to a solvent-free medium. All the tests were done in quadruplicates. Each experiment was conducted twice.
(§3) In order to compare the cytotoxic effects of the conjugates relative to the free drugs, the in vitro cytotoxic effect of the drug bioconjugates 1a-e was determined on SSTR2 overexpressed HCT 116 human colorectal carcinoma, H1299 human non-small cell lung carcinoma and TRAMP C2 human prostate cancer cell lines. The SSTR2 low-expressed HEK-293 (Human Embryonic Kidney 293) cell line was used as a negative control. The study was elaborated over a concentration range of 1-10 μM.
FIGS. 13A-13D present the results of the XTT growth inhibition assay conducted for conjugates 1a-e. Growth inhibition effect of drug-conjugates versus free drugs was studied on three cell lines with an over-expression of SSTR2 (FIG. 13A. HCT 116; FIG. 13B. H1299; FIG. 13C. TRAMP C2) against the SSTR2 low expression cell line (FIG. 13D) HEK as negative control. All the cell lines were seeded and allowed to adhere in the wells, after which they were treated with the different compounds in increasing concentrations for 24 and 72 hr. After the treatment, growth inhibition was measured using the XTT assay: The culture medium was replaced by a new one, and then the XTT reagent was added. The wells were incubated for 2-4 hrs. after which the optical density (OD) was measured at 480 and 680 nm. Percentage of growth inhibition for each compound was calculated by comparison of the treated culture versus a control culture (free of any compound). The result shown for each concentration point represents the mean±standard error calculated from two different experiments. In each experiment the compounds were tested in quadruplicates.

[3] = test system: H1299 human non-small cell lung carcinoma cells; test: XTT growth inhibition assay, H1299; type: cell-based; details: 10 μM, incubation of 72 h
Experimental: as §2, §3
as §1, with “nm. Percentage of growth inhibition for each compound was calculated by comparison of the treated culture versus a control culture (free of any compound). The result shown for each concentration point represents the mean±standard error calculated from two different experiments.” for “nm.”

[4] = Bio-stability and drug release of conjugates 1a-e in murine liver homogenate (LH); type: in vitro ADME, mouse; details: 37° C.
Experimental: Preparation of liver homogenate: Mice were sacrificed by CO2 inhalation euthanasia. The livers were removed, minced, washed three times in cold PBS buffer and homogenized in Tris-HCl buffer, pH 7.4 (wt/3 vol.) by dozen strokes in a Potter-Elvehjem glass tissue grinder. The tissue homogenate was centrifuged at 4° C., 14000 rpm, 20 min. The supernatant was carefully collected (liver homogenate) and used immediately or else stored in liquid nitrogen.
Incubation procedure: Incubations were conducted in a 37° C. incubator with 2 ml homogenate (equivalent to 6 mg total protein of mouse liver homogenate) per incubation tube. The samples were prepared by adding 50 μl of stock solution to the homogenate (homogenate mixture) at the beginning of the incubation period. Aliquots of the homogenate mixture were removed after 10, 30, 60, 90, 120 and 180 min and then immediately quenched with 2.5 volumes of ethanol. The samples were centrifuged at 14000 rpm for 15 min. Supernatants were collected, filtered and analyzed by LC-MS.
FIGS. 12A-12E present the results of the bio-stability and drug release profiles assays conducted for conjugates 1a-e in LH. […] Stock solutions were prepared by dissolving 5 mg of the measured conjugate in 0.5 ml DMSO. 50 μl of the stock solution were diluted with 2 ml of fresh mouse liver homogenate and then the mixture was incubated at 37° C. Aliquots were collected at 10, 30, 60, 90 and 120 min, mixed with 2.5 volumes of ethanol and centrifuged (14,000 rpm, 15 min). The supernatants were collected, filtered and analyzed by LC-MS

[5] = Chemo-stability and drug release of conjugates 1a-e in buffers at pH 2, 5 and 7.4 (LC-MS); type: physicochemical; details: 37° C.
Experimental: Incubation procedure: Aqueous stability was determined at pH 2.0 (phosphate buffer), 5.0 (citrate buffer) and 7.4 (PBS buffer). 100 μl of the stock solutions were diluted to 2.5 ml with the desired buffer and then incubated at 37° C. During the incubation period (up to 200 hrs.), aliquots were removed at different time intervals, filtered and analyzed by LC-MS.
Chemo-stability. The chemo-stability tests of the conjugates were performed at three different pH values; a physiological pH of 7.4, the slightly acidic pH 5, mimicking the microenvironment in tumors, and the more acidic pH 2.
FIGS. 11A-11J present the results of the chemo-stability and drug release profiles assays, conducted for conjugates 1a-e at pH 2, 5 and 7.4. Degradation of 1a (FIG. 11A), 1b (FIG. 11C), 1c (FIG. 11E), 1d (FIG. 11G), 1e FIG. 11 (FIG. 11I), and the release of the corresponding drugs: CLB (FIG. 11B), CPT (FIG. 11D), AM (FIG. 11F), ABT-751 (FIG. 11H), and COMB (FIG. 11J). Stock solutions were prepared by dissolving 5 mg of the measured conjugate in 0.5 ml DMSO. 100 μl of the stock solution were diluted to 2.5 ml with the relevant buffer and then incubated at 37° C. Along the incubation period, aliquots were taken at the desired time points and analyzed by LC-MS.

In the case of `COc1ccc(S(=O)(=O)Nc2cccnc2Nc2ccc(OC(=O)NCCCC(=O)N[C@H](Cc3ccccc3)C(=O)N[C@H]3CSSCCN(CC(N)=O)C(=O)[C@H](Cc4ccccc4)NC(=O)[C@H]([C@@H](C)O)NC(=O)[C@H](CCCCN)NC(=O)[C@@H](Cc4c[nH]c5ccccc45)NC(=O)[C@H](Cc4c[nH]c5ccccc45)NC(=O)[C@H](Cc4ccccc4)NC3=O)cc2)cc1` [conjugate 1d], the “cytotoxic effect on TRAMP C2” value [1] is reported as “most potent targeted therapeutic effect”, the “cytotoxicity throughout the study” value [2] is reported as “targeted but cell selective cytotoxicity” and the “cytotoxic effect on H1299” value [3] is reported as “most active”. The “release of free drug in liver homogenate” value [4] was “could hardly be detected”, the degradation of conjugate ([5]; all tested pH values (pH 2, 5, 7.4)) was “rapid degradation” and the half-life at 0.4 mg/ml ([5]; buffer, all tested pH values, read-out: average degradation t1/2 (converted)) was 8 h.
